The structures appear in SMILES notation.

This data set is described as follows: Differential scanning calorimetry (DSC) of niacinamide and its 2% blends with silicones. Type of data set: physicochemical. The method, then: To further understand the difference in interaction between ionically modified silicone and control/Silsoft silicone gel, differential scanning calorimetry (DSC) studies were carried out on pure active-niacinamide, and its blends with silsoft silicone and ionically modified silicone. 2% Niacinamide blends were prepared by thoroughly mixing Niacinamide with above silicones using spatula followed by high-speed mixing in Flack-Tek for 5 minutes. The free Niacinamide and Niacinamide loaded Silsoft silicone gel and ionically modified silicone were subjected to a heating and cooling cycle under nitrogen atmosphere. The DSC thermograms are show in FIG. 2.
A general note: Differential scanning calorimetry records heat flow against a reference as temperature is scanned.

As to `NC(=O)c1cccnc1` [Niacinamide, niacinamide], under “nitrogen atmosphere”, the “ΔH (heat change associated with the melting of Niacinamide)” value was 218.7 J/g. Further, where the note is “relative to pure niacinamide”, the “% Crystallinity (crystalline Niacinamide)” value is recorded as 100%.

The record behind these values is US9744119B2, “Cosmetic composition and method of preparation” (Momentive Performance Materials Inc., priority 2014, dated 2017).
